Assay type in all cases: biochemical
Holding throughout (conditions): HeLa S3 lysate, sfGFP/mCherry ratio, 2 hrs at 30° C.

The subject of assay [1] is MYC. The experiment in a line: In vitro transcription-translation (IVTT) assay, MYC reporter. A digest of the protocol:
(§1)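 Reporter: mCherry, P2A, then 3×FLAG-target peptide-sfGFP fusion, IRES-initiated; HeLa S3 lysate IVTT; cpd dilutions 30 μM−0.1 μM half-log in 100% DMSO (dilution-plate conc); DNA added last; 2 h, 30° C; PBS quench.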

In assay [2] the test system is CCND1. The experiment in a line: In vitro transcription-translation (IVTT) assay, CCND1 reporter. A digest of the protocol: as §1
Assay [3] deals with ALK. As to the kind of experiment: In vitro transcription-translation (IVTT) assay, ALK reporter. From the text:
(§2) All reporter constructs have been cloned into the pT7CFE1-CHis plasmid (ThermoFisher #88860) using Gibson assembly procedures (NEB #E2611L). The parental pT7CFE1-CHis plasmid contains an EMCV IRES at the 5′UTR for translation initiation, a multiple-cloning site (MCS) for gene insertion, an optional C-terminal His-epitope tag, and polyA sequence in the 3′UTR to regulate mRNA stability. All reporters are designed to be inserted at the MCS to include a red fluorescent protein (mCherry), P2A self-cleaving peptide which releases the preceding mCherry protein product, and a fusion open reading frame containing a 3×FLAG epitope, a peptide sequence of interest (TEST), and green fluorescent protein (sfGFP).
(§3) Construct Plasmid Preparation: All plasmids are isolated from MACH1 cells (ThermoFisher) grown overnight in ampicillin-containing luria broth, and purified using ZymoPure Express Plasmid Midiprep Kit (Zymo Research). Constructs are sequenced verified and diluted to a working concentration of 110 ng/μL.
(§4) HeLa S3 Lysate Preparation: HeLa S3 cell pellets are acquired from Ipracell/Ipratech (Belgium) and shipped as 4 mL frozen cell pellets on dry ice for storage at −80° C. until use. The procedure for lysate preparation is as follows. Prepare 1× Lysis Buffer, cold and stored on ice:
(§5) Each preparation takes 8 cell pellets (4 ml packed volume each, approximately 1.0×10^9 cells per pellet). Thaw cell pellets from −80° C. on ice for 90 mins. Lay pellets horizontally on top of the ice and rotate every 30 mins to ensure even thawing. Once thawed, add 4 mL of cold lysis buffer to each pellet, and using a serological pipet, gently pipet up and down to break up clumps. Incubate resuspended cells in ice for an additional 30 mins (plunged into ice). During 30 min incubation, rinse and RNase-zap (Ambion) glass dounces (use loose pestle “A”), gently dry and place on ice until needed. Prepare RNase-free Eppendorf tubes for spinning and for batch storage. Add batch labels to 1.5-1.7 mL RNase-free microcentrifuge tubes (labeling scheme below). Each batch will have an extra 1.5-1.7 mL RNase-free microcentrifuge tube for 40 μL of lysate, label the top of this tube (labeling scheme below). After 30 min incubation, transfer all 8 mL of cell pellet to dounce. Cell lysis is complete after douncing 100 times. Aliquot cell lysis into 1.5-1.7 mL temporary-microcentrifuge tubes. Place tubes in centrifuge with “fins” out, and spin at 1,200×g for 5 mins. After the first spin use a 1 mL pipet to resuspend each tube and repeat spin. This acts as an additional lysis step, is more vigorous and increases lysate yield. During second spin get liquid N2 and a fresh conical tube on ice. After spin is complete, transfer supernatant (lysate) from microcentrifuge tubes into the 50 mL conical tube and keep on ice. Repeat steps 10-14 for all other cell pellets until completed. Once all cell lysate has been transferred to the 50 mL conical tube pipet to mix so the solution is homogenous. Transfer 1 mL of lysate into batch-labeled microcentrifuge tubes and flash freeze in liquid nitrogen. Be sure to pipet up and down to mix throughout transfer step. Place all tubes in the […] for long-term storage.
(§6) In vitro transcription-translation assay setup: Each assay includes a master mix containing lysate and shared components, a 96-well plate containing compound titrations for testing, a 96-well DNA plate with reporter constructs to be tested, 96-well skirted PCR plates, and 96-well flat-bottom, black, fluorescent assay plates. […]

Assay [4] deals with KRAS G12D. The experiment in a line: In vitro transcription-translation (IVTT) assay, KRAS G12D reporter.
Excerpt: as §2, §3, §4, §5, §6

The test system of assay [5] is MCL-1. The experiment in a line: In vitro transcription-translation (IVTT) assay, MCL-1 reporter. A digest of the protocol:
as §1

Where a name gives a salt, the structure may show the parent alone. Bounds are passed on as bounds.

Usually IC50 stands for the concentration that inhibits the measured activity by half.

Consider `COc1ccc(C[C@H]2NC[C@H](O)[C@H]2OC(=O)Nc2ncc[nH]2)cc1` [V187755, (2R,3S,4S)-4-hydroxy-2-[(4-methoxyphenyl)methyl]pyrrolidin-3-yl N-(1H-imidazol-2-yl)carbamate], for which the half-inhibitory concentration (IC50) in assay [1], in assay [2] and in assay [3] was < 10 µM in each case.
For the compound `COc1ccc(C[C@H]2NC[C@H](O)[C@H]2OC(=O)NCCNc2c(NCc3ccccc3)c(=O)c2=O)cc1` [V187519, (2R,3S,4S)-4-hydroxy-2-[(4-methoxyphenyl)methyl]pyrrolidin-3-yl N-(2-{[2-(benzylamino)-3,4-dioxocyclobut-1-en-1-yl]amino}ethyl)carbamate; trifluoroacetic acid], the half-maximal inhibitory concentration (IC50) in assay [4] was > 30 µM.
Turning to `COc1ccc(C[C@H]2NC[C@H](O)[C@H]2OC(=O)NCCN2CC(C)(O)C2)cc1` [V187580, (2R,3S,4S)-4-hydroxy-2-[(4-methoxyphenyl)methyl]pyrrolidin-3-yl N-[2-(3-hydroxy-3-methylazetidin-1-yl)ethyl]carbamate; trifluoroacetic acid], the values for the IC50 in assay [1] and in assay [3] were > 30 µM and 10 to 20 µM, respectively.
As to `COc1ccc(C[C@H]2NC[C@H](O)[C@H]2OC(=O)NCCN2C[C@@H](NC(C)=O)[C@H](NC(C)=O)C2)cc1` [V187588, (2R,3S,4S)-4-hydroxy-2-[(4-methoxyphenyl)methyl]pyrrolidin-3-yl N-{2-[(3R,4R)-3,4-diacetamidopyrrolidin-1-yl]ethyl}carbamate; trifluoroacetic acid], the half-inhibitory concentration (IC50) in assay [1] and in assay [3] was > 30 µM in each case.
With `COc1ccc(C[C@H]2NC[C@H](O)[C@H]2OC(=O)Nc2nc3ccccc3s2)cc1` [V187753, (2R,3S,4S)-4-hydroxy-2-[(4-methoxyphenyl)methyl]pyrrolidin-3-yl N-(1,3-benzothiazol-2-yl)carbamate; trifluoroacetic acid], the IC50 in assay [1] and in assay [3] was > 30 µM throughout.
Regarding `COc1ccc(C[C@H]2NC[C@H](O)[C@H]2OC(=O)NCCNCCOC(C)C)cc1` [V187640, (2R,3S,4S)-4-hydroxy-2-[(4-methoxyphenyl)methyl]pyrrolidin-3-yl N-{2-[(2-isopropoxyethyl)amino]ethyl}carbamate; trifluoroacetic acid], the IC50 in assay [1] and in assay [4] was > 30 µM each time.
As for `COc1ccc(C[C@H]2NC[C@H](O)[C@H]2OC(=O)NCCN2CC[C@H](O)C2)cc1` [V187576, (2R,3S,4S)-4-hydroxy-2-[(4-methoxyphenyl)methyl]pyrrolidin-3-yl N-{2-[(3S)-3-hydroxypyrrolidin-1-yl]ethyl}carbamate trifluoroacetic acid salt], the half-inhibitory concentration (IC50) in assay [1] was < 10 µM; in assay [3] it was 10 to 20 µM.
Take `COc1ccc(C[C@H]2NC[C@H](O)[C@H]2OC(=O)NCCCO)cc1` [V187585, (2R,3S,4S)-4-hydroxy-2-[(4-methoxyphenyl)methyl]pyrrolidin-3-yl N-(3-hydroxypropyl)carbamate]: the half-inhibitory concentration (IC50) in assay [1], in assay [2], in assay [5] and in assay [3] was < 10 µM each time.
Consider `COc1ccc(C[C@H]2NC[C@H](O)[C@H]2OC(=O)NCCN2CC(O)C2)cc1` [V187579, (2R,3S,4S)-4-hydroxy-2-[(4-methoxyphenyl)methyl]pyrrolidin-3-yl N-[2-(3-hydroxyazetidin-1-yl)ethyl]carbamate; trifluoroacetic acid], for which the IC50 is 10 to 20 µM in assay [1] and 20 to 30 µM in assay [3].
Consider `COc1ccc(C[C@H]2NC[C@H](O)[C@H]2OC(=O)NCc2nn[nH]n2)cc1` [V187534, (2R,3S,4S)-4-hydroxy-2-[(4-methoxyphenyl)methyl]pyrrolidin-3-yl N-(2H-1,2,3,4-tetrazol-5-ylmethyl) carbamate; trifluoroacetic acid], for which the half-maximal inhibitory concentration (IC50) in assay [1] was 10 to 20 µM; in assay [3], < 10 µM.

(Values after US20250129021A1, “SMALL MOLECULE PROTEIN SYNTHESIS MODULATORS” (Interdict Bio, Inc., priority 2023, published 2025).)
